Where “and” joins values, the source holds several entries; their conditions need not be identical. Equal values may be shown once. Read-outs that look alike come from different tables or passages of the source.
Assays:
A549, MCF-7, and HT-29 = system: A549, MCF-7, and HT-29; parameters: method as in doi:10.1016/j.molstruc.2022.132422; conditions: most active in all cell lines examined (A549, MCF-7, HT-29); read-out: IC50, antiproliferative; cited from earlier work
HCT-116 cell line = system: HCT-116 cell line; parameters: method as in PMID 33214036; conditions: read-out: IC50, antiproliferative; cited from earlier work
HDAC4 = molecular target: T1, HDAC4 (Homo sapiens, UniProt P56524); assay: HDAC enzyme activity assay (fluorogenic, Boc-Lys(trifluoroacetyl)-AMC), HDAC4; type: biochemical; conditions: class IIa HDAC4; mean ± SD, triplicate
T1 construct: catalytic domain of HDAC4 (T648-T1057, full length: UniProt P56524); made in house; host or cells: E. coli BL21(DE3), pET14b vector

MCF7 = assay: MTT cell proliferation assay, MCF7; type: cell-based, human; conditions: Homo sapiens, MCF7, 72 h, read-out: IC50 ± SD MCF7
B16 = assay: MTT cell proliferation assay, B16; type: cell-based, murine; conditions: Mus musculus, read-out: IC50 ± SD B16
HDAC6 = molecular target: T2, HDAC6 (Homo sapiens, UniProt Q9UBN7); assay: HDAC enzyme activity assay (fluorogenic, Boc-Lys(acetyl)-AMC), HDAC6; type: biochemical; conditions: class IIb HDAC6; mean ± SD, triplicate
T2 construct: Full-length recombinant HDAC6 was purchased from BPS Bioscience; purchased BPS Bioscience
T2 sequence (Q9UBN7 1-1215): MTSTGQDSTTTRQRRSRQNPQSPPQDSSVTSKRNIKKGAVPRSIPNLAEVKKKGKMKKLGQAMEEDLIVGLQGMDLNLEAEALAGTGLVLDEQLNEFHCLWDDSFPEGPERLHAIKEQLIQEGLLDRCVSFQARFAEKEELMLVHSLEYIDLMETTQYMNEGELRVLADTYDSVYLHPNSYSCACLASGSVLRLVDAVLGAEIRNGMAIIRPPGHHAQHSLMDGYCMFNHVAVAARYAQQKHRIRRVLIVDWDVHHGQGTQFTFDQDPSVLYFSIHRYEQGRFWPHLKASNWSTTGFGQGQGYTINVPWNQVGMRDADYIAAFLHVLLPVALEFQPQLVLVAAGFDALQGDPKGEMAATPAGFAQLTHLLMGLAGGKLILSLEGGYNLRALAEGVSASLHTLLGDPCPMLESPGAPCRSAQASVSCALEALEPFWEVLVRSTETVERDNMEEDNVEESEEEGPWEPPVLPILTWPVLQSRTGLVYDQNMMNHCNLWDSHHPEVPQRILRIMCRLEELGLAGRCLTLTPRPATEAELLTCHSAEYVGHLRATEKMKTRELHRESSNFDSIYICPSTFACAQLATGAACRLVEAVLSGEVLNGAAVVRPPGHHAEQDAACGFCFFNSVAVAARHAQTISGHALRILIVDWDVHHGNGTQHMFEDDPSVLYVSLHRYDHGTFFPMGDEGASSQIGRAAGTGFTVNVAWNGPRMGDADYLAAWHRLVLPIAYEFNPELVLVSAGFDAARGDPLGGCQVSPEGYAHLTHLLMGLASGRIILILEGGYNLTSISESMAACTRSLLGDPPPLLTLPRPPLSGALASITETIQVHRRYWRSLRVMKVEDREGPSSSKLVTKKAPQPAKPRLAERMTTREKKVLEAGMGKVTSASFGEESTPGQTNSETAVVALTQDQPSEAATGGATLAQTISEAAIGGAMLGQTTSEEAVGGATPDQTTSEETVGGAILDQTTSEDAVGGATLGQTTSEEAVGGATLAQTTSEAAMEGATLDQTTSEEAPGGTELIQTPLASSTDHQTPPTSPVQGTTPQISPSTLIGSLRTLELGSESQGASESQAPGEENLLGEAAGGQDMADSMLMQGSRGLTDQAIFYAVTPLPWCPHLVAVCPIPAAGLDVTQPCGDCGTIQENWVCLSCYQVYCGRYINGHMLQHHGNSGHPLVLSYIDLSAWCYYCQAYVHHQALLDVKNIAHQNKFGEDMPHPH

HEK 293 = assay: MTT cell proliferation assay, HEK 293; type: cell-based, human; conditions: Homo sapiens, read-out: IC50 ± SD HEK 293
HDAC8 = molecular target: T3, HDAC8 (Homo sapiens, UniProt Q9BY41); assay: HDAC enzyme activity assay (fluorogenic, Boc-Lys(trifluoroacetyl)-AMC), HDAC8; type: biochemical; conditions: class I HDAC8; mean ± SD, triplicate
T3 construct: codon-optimized full-length HDAC8; made in house; host or cells: E. coli BL21(DE3), pET14b vector
T3 sequence (Q9BY41 1-377): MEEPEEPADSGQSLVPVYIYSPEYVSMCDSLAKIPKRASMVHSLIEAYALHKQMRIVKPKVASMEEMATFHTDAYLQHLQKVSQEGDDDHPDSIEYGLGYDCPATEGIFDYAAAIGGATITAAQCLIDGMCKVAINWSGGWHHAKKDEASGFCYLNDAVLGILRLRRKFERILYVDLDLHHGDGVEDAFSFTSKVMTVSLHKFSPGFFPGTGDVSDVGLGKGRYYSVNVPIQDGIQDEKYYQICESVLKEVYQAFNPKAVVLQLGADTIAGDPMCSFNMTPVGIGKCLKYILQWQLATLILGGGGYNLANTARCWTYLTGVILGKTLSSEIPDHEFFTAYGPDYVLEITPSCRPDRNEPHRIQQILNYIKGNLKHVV

HCT116 = assay: MTT cell proliferation assay, HCT116; type: cell-based, human; conditions: Homo sapiens, read-out: IC50 ± SD HCT116
HCC827 cells = system: HCC827 cells; parameters: method as in PMID 34403956; conditions: strongest against all cancer cell lines, read-out: IC50, antiproliferative; cited from earlier work
HDAC = system: HDAC; parameters: method as in PMID 29223029; conditions: quinazoline-4-(3H)-one cap group; read-out: IC50 HDAC inhibitory activity; cited from earlier work
[1] = cited from earlier work
[2] = MTT, 72 h, mean ± SD, triplicate
[3] = B16, MTT, 72 h, mean ± SD, triplicate
[4] = HEK293, MTT, 72 h, mean ± SD, triplicate
[5] = HCT-116, MTT, 72 h, mean ± SD, triplicate

T1 sequence (P56524 648-1057): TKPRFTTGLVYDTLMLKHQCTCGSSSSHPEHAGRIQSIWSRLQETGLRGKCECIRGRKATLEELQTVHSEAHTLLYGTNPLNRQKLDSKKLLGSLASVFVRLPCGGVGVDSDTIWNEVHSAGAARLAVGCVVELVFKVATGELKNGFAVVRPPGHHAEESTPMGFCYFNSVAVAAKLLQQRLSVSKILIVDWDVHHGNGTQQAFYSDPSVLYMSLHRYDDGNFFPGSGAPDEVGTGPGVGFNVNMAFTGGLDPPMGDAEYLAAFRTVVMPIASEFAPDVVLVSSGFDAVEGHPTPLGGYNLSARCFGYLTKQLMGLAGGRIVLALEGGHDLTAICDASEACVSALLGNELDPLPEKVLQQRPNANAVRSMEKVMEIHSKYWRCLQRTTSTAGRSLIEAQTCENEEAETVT

Row | IC50 (HDAC4) | IC50 (MCF7; [2]) | melting point | IC50 (B16; [3]) | IC50 (HDAC6) | IC50 (HDAC8) | IC50 (HCT116; [5]) | Structure (SMILES) | IC50 (HEK 293; [4]) | also measured
1 | – | – | – | – | – | – | – | C=CCn1c(SCC(=O)Nc2cccc(C(=O)/C=C/c3ccc(OC)cc3)c2)nc2ccccc2c1=O [A] | – | IC50 (A549, MCF-7, and HT-29): 1.16 µM
2 | – | – | – | – | – | – | – | C/C(=N\NC(=O)c1cc([N+](=O)[O-])ccc1Cl)c1ccc(NC(=O)CSc2nc3ccccc3c(=O)n2-c2ccc(C)cc2)cc1 [B] | – | IC50 (HCT-116 cell line): 11.7 µM
3 | > 35 µM | > 50 µM | 180 °C and 178 to 180 °C | > 50 µM | 0.41 ± 0.15 µM | 1.3 ± 0.1 µM | > 50 µM | Cc1ccccc1-n1c(SCc2ccc(C(=O)NO)cc2)nc2cc(Cl)ccc2c1=O [Compound 5k, 4-(((7-chloro-4-oxo-3-(o-tolyl)-3,4-dihydroquinazolin-2-yl)thio)methyl)-N-hydroxybenzamide] | > 50 µM | –
4 | 19 µM | > 50 µM | 170 to 175 °C and 173 to 175 °C | > 50 µM | 3.9 ± 0.4 µM | 17 µM | > 50 µM | Cc1ccc(-n2c(SCc3ccc(C(=O)NO)cc3)nc3cc(Cl)ccc3c2=O)cc1 [Compound 5l, 4-(((7-chloro-4-oxo-3-(p-tolyl)-3,4-dihydroquinazolin-2-yl)thio)methyl)-N-hydroxybenzamide] | > 50 µM | –
5 | 6.7 ± 1.1 µM | > 50 µM | 230 to 235 °C and 234 to 235 °C | 33.9 ± 5.12 µM | 0.32 ± 0.03 µM | 0.14 ± 0.02 µM | > 50 µM | O=C(NO)c1ccc(CSc2nc3cc(Cl)ccc3c(=O)n2-c2ccc(Cl)cc2)cc1 [Compound 5n, 4-(((7-chloro-3-(4-chlorophenyl)-4-oxo-3,4-dihydroquinazolin-2-yl)thio)methyl)-N-hydroxybenzamide] | > 50 µM | –
6 | – | – | – | – | – | – | – | O=C(c1ccccc1)N(C(=O)c1ccccc1)c1ccc(-c2ccc3ncn(Cc4ccccc4)c(=O)c3c2)cn1 [Compound C] | – | IC50 (HCC827 cells): 1.12 µM
7 | – | – | – | – | – | – | – | COc1cc2ncn(Cc3ccc(C(=O)NO)cc3)c(=O)c2cc1OC [G] | – | IC50 (HDAC): 0.37 µM
8 | – | – | – | – | – | – | – | O=C(NO)c1ccc(CN(c2cnccn2)c2cnccn2)cc1 [KA2507] | – | clinical activity ([1]; phase I/II): prolonged dis-ease stabilization in a subset of patients; toxicity in clinical trial ([1]; phase I/II): no significant toxicities
9 | – | – | – | – | – | – | – | O=C(CCCCCCNC(=O)c1cnc(N(c2ccccc2)c2ccccc2)nc1)NO [Ricolinostat, reference compound] | – | IC50 (MCF7): > 50 µM; IC50 (B16; B16, 72 h): 89.2 ± 12.5 µM; outcome of combination therapy with bortezomib and dexamethasone ([1]; multiple myeloma): safe, well-tolerated, and active against multiple myeloma; safety of combination with paclitaxel ([1]; patients with metastatic breast cancer): could be safely combined with paclitaxel; single-agent therapy outcome ([1]; single agent): neither significant toxicities nor clinical responses; IC50 (HEK 293; HEK293, 72 h): 66.8 ± 10.6 µM; IC50 (HCT116; HCT-116, 72 h): 40.5 ± 7.69 µM
